# Data from the supplement of paper PMC10307832.
# Legend:
# Test in all cases: relative viability (nuclei count vs DMSO), 5 days (fraction); higher = more cells survive
# A-427 = tested on: A-427
# Outline: (§1)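 Lung cancer cell lines in 1536-well plates were dosed by pin tool the day after seeding, either with one drug alone or with a fixed anchor-drug dose plus five library-drug doses (not always all listed) in √10 steps. After 5 days, cells were fixed and their nuclei stained in one step (final 0.05% Triton X-100, 1% formaldehyde, 1 ug/ml Hoechst), then counted on 4× images. Relative viability is the nuclei count in treated wells divided by that in vehicle wells. Values are medians of duplicate plates.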
# HCC-78 = tested on: HCC-78
# Outline: as §1
# NCI-H460 = tested on: NCI-H460
# Outline: as §1
# NCI-H1666 = tested on: NCI-H1666
# Outline: as §1
# SK-LU-1 = tested on: SK-LU-1
# Outline: as §1
# LC-2-ad = tested on: LC-2-ad
# Outline: as §1
# NCI-H2009 = tested on: NCI-H2009
# Outline: as §1
# COR-L 105 = tested on: COR-L 105
# Outline: as §1
# NCI-H2085 = tested on: NCI-H2085
# Outline: as §1
# UMC-11 = tested on: UMC-11
# Outline: as §1
# EPLC-272H = tested on: EPLC-272H
# Outline: as §1
# LU99A = tested on: LU99A
# Outline: as §1
# HCC-366 = tested on: HCC-366
# Outline: as §1
# NCI-H1792 = tested on: NCI-H1792
# Outline: as §1
# LXF-289 = tested on: LXF-289
# Outline: as §1
# NCI-H1915 = tested on: NCI-H1915
# Outline: as §1
# HOP-62 = tested on: HOP-62
# Outline: as §1
smiles,measurement,setting,value
O=c1cc(N2CCOCC2)oc2c(-c3cccc4c3sc3ccccc34)cccc12 + CC(C)C[C@H](NC(=O)[C@H](Cc1ccccc1)NC(=O)c1cnccn1)B(O)O [Bortezomib] (partner 0.002 µM),relative viability,A-427; first compound 0.01 µM,0.991
same,relative viability,A-427; first compound 0.03162 µM,1.04
same,relative viability,A-427; first compound 0.1 µM,1.03
same,relative viability,A-427; first compound 0.3162 µM,0.871
same,relative viability,A-427; first compound 1 µM,1.03
same,relative viability,HCC-78; first compound 0.01 µM,0.544
same,relative viability,HCC-78; first compound 0.03162 µM,0.467
same,relative viability,HCC-78; first compound 0.1 µM,0.566
same,relative viability,HCC-78; first compound 0.3162 µM,0.482
same,relative viability,HCC-78; first compound 1 µM,0.468
same,relative viability,NCI-H460; first compound 0.01 µM,1.01
same,relative viability,NCI-H460; first compound 0.03162 µM,1.13
same,relative viability,NCI-H460; first compound 0.1 µM,1.3
same,relative viability,NCI-H460; first compound 0.3162 µM,1.06
same,relative viability,NCI-H460; first compound 1 µM,1.07
same,relative viability,NCI-H1666; first compound 0.01 µM,0.678
same,relative viability,NCI-H1666; first compound 0.03162 µM,0.804
same,relative viability,NCI-H1666; first compound 0.1 µM,0.909
same,relative viability,NCI-H1666; first compound 0.3162 µM,0.703
same,relative viability,NCI-H1666; first compound 1 µM,0.751
same,relative viability,SK-LU-1; first compound 0.01 µM,1.15
same,relative viability,SK-LU-1; first compound 0.03162 µM,1.36
same,relative viability,SK-LU-1; first compound 0.3162 µM,1.5
same,relative viability,SK-LU-1; first compound 1 µM,1.17
same,relative viability,LC-2-ad; first compound 0.01 µM,1.15
same,relative viability,LC-2-ad; first compound 0.1 µM,1.09
same,relative viability,LC-2-ad; first compound 0.3162 µM,0.993
same,relative viability,LC-2-ad; first compound 1 µM,1.05
same,relative viability,NCI-H2009; first compound 0.01 µM,1.03
same,relative viability,NCI-H2009; first compound 0.03162 µM,1.01
same,relative viability,NCI-H2009; first compound 0.1 µM,0.89
same,relative viability,NCI-H2009; first compound 0.3162 µM,0.967
same,relative viability,NCI-H2009; first compound 1 µM,1.01
same,relative viability,COR-L 105; first compound 0.01 µM,0.793
same,relative viability,COR-L 105; first compound 0.03162 µM,0.793
same,relative viability,COR-L 105; first compound 0.1 µM,0.769
same,relative viability,COR-L 105; first compound 0.3162 µM,0.895
same,relative viability,COR-L 105; first compound 1 µM,0.807
same,relative viability,NCI-H2085; first compound 0.01 µM,0.995
same,relative viability,NCI-H2085; first compound 0.03162 µM,1.01
same,relative viability,NCI-H2085; first compound 0.1 µM,1.03
same,relative viability,NCI-H2085; first compound 0.3162 µM,1.06
same,relative viability,NCI-H2085; first compound 1 µM,0.967
same,relative viability,UMC-11; first compound 0.01 µM,0.63
same,relative viability,UMC-11; first compound 0.03162 µM,0.505
same,relative viability,UMC-11; first compound 0.1 µM,0.72
same,relative viability,UMC-11; first compound 0.3162 µM,0.736
same,relative viability,UMC-11; first compound 1 µM,0.728
same,relative viability,EPLC-272H; first compound 0.01 µM,0.903
same,relative viability,EPLC-272H; first compound 0.03162 µM,0.916
same,relative viability,EPLC-272H; first compound 0.3162 µM,0.854
same,relative viability,EPLC-272H; first compound 1 µM,0.935
same,relative viability,LU99A; first compound 0.01 µM,1.25
same,relative viability,LU99A; first compound 0.03162 µM,1.11
same,relative viability,LU99A; first compound 0.1 µM,1.19
same,relative viability,LU99A; first compound 0.3162 µM,1.03
same,relative viability,LU99A; first compound 1 µM,1.29
same,relative viability,HCC-366; first compound 0.01 µM,1.09
same,relative viability,HCC-366; first compound 0.03162 µM,1.09
same,relative viability,HCC-366; first compound 0.1 µM,1.03
same,relative viability,HCC-366; first compound 0.3162 µM,1.06
same,relative viability,HCC-366; first compound 1 µM,1.04
same,relative viability,NCI-H1792; first compound 0.01 µM,0.965
same,relative viability,NCI-H1792; first compound 0.03162 µM,0.912
same,relative viability,NCI-H1792; first compound 0.1 µM,0.965
same,relative viability,NCI-H1792; first compound 0.3162 µM,0.938
same,relative viability,NCI-H1792; first compound 1 µM,0.955
same,relative viability,LXF-289; first compound 0.01 µM,1.01
same,relative viability,LXF-289; first compound 0.03162 µM,0.967
same,relative viability,LXF-289; first compound 0.1 µM,1.1
same,relative viability,LXF-289; first compound 0.3162 µM,1.03
same,relative viability,LXF-289; first compound 1 µM,1.05
same,relative viability,NCI-H1915; first compound 0.01 µM,0.994
same,relative viability,NCI-H1915; first compound 0.03162 µM,1.01
same,relative viability,NCI-H1915; first compound 0.1 µM,0.867
same,relative viability,NCI-H1915; first compound 0.3162 µM,0.94
same,relative viability,NCI-H1915; first compound 1 µM,0.995
same,relative viability,HOP-62; first compound 0.01 µM,0.497
same,relative viability,HOP-62; first compound 0.03162 µM,0.565
same,relative viability,HOP-62; first compound 0.1 µM,0.963
same,relative viability,HOP-62; first compound 0.3162 µM,0.81
same,relative viability,HOP-62; first compound 1 µM,0.723
